Marks after values point to notes of the source that are not given here.
How the values were obtained:
[1] = tested on: R6/2 mice hippocampal slices; experiment: Synaptic transmission and plasticity (LTP) in R6/2 mice hippocampal slices (Example 8); design: species or system mouse; conditions: R6/2 slices
Description: Improvements in synaptic transmission and plasticity, as measured by long term potentiation (LTP), is believed to indicate the potential of a compound to enhance memory. LTP is an electrophysiological phenomena that is commonly referred to as the a cellular phenomenon driving learning and memory.
Preparation of acute mice hippocampal slices. Experiments were carried out with 11 to 12 week-old R6/2 and WT mice provided by the Jackson Laboratory (USA). Hippocampal slices (350 μm thickness) were cut with a Macllwain tissue chopper in an ice-cold oxygenated sucrose solution (Saccharose 250, Glucose 11, NaHCO3 26, KCl 2, NaH2PO4 1.2, MgCl2 7, and CaCl2 0.5 in mM). The slices were incubated 1 hour at room temperature in ACSF of the following composition: Glucose 11, NaHCO3 25, NaCl 126, KCl 3.5, NaH2PO4 1.2, MgCl2 1.3, and CaCl2 2 in mM. Then, the slices were let to recover for at least 1 h.
Slice perfusion and temperature control. During the experiments, the slices were continuously perfused with the ACSF (bubbled with 95% O2-5% CO2) at the rate of 3 mL/min with a peristaltic pump (MEA chamber volume: ˜1 mL). Complete solution exchange in the MEA chamber was achieved 20 s after the switch of solutions. The perfusion liquid was continuously pre-heated at 37° C. just before reaching the MEA chamber with a heated-perfusion cannula (PH01, Multichannel Systems, Reutlingen, Germany). The temperature of the MEA chamber was maintained at 37±0.1° C. with a heating element located in the MEA amplifier headstage.
Input/Output (I/O)curve: from 100 to 800 μA, by 100 μA steps. The stimulus intensity was then set to a fixed value of 250 μA for the short- and long-term synaptic plasticity measurements.
Short-term plasticity properties: two pulses with a decreasing inter-stimuli interval (e.g. 300 ms, 200 ms, 100 ms, 50 ms, 25 ms) were applied. Compound application: fEPSP were recorded for 10 minutes in control conditions (to verify the baseline steadiness) followed by a 15-minute exposure to the compound (or 25 minutes in the presence of vehicle only for control slices). A second I/O protocol and paired-pulse protocol were applied, as described previously, in the continuous presence of the compound.
Long-Term Potentiation (LTP); Following a 10-minute control period (in the presence of the compound or vehicle for control slices), LTP was induced by a 10×TBS. Potentiation of synaptic transmission was then monitored for an additional 60-minute period (in the continuous presence of the compound or vehicle for control slices).

cGMP in mouse brain = experiment: Compound-induced cGMP in mouse brain (Example 9); format: in vivo; conditions: 30 min after dosing
Description: Objective. To determine the effect of different doses of a compound of the invention in cGMP response and compound concentration in different areas of the mouse brain (cortex, hippocampus, cerebellum and striatum) and compound concentration in blood
Protocol. Mice (n=7-8 per experimental condition) were dosed PO with vehicle (1% hydroxypropyl methyl cellulose, 0.2% Tween80, 0.5% methyl cellulose) or 0.3, 1, 3 or 10 mg/Kg of Compound I-1 prepared in vehicle. Thirty minutes after dosing, under isoflurane anesthesia, the mouse was decapitated and the brain was removed and placed into an ice-cold petri dish containing slushy dissection solution (saturated with 95% O2·5% CO2). Using an ice-cold spatula, the brain was transferred to mouse brain matrix with coronal spacing for slicing at 1 mm intervals, as shown in FIG. 5 (not to scale, just a scheme).
The sliced brain was transferred back into petri dish containing slushy dissection solution with IBMX 0.5 mM (saturated with 95% O2/5% CO2). The dorsal striatum is dissected first, followed by the hippocampus second, followed by the medial prefrontal cortex third, and lastly, the cerebellum fourth. After each region is dissected the dissected tissue was immediately placed into an eppendorf that was placed on dry ice for the previous 30 minutes. Small pieces of tissue froze very fast, within 10 seconds approximately. After all regions were placed in an eppendorf, the eppendorfs were then snap frozen by immersion into liquid nitrogen. The whole blood sample was collected from the trunk area using mitra tips. Tissue samples were stored in the −80° C. and mitra tips at room temperature. cGMP and compound levels in brain and blood were determined by LC/MS; protein quantification of brain samples was determined using BCA protein assay kit.

Fc1ccccc1Cc1nc(-c2nc(C(F)(F)F)n[nH]2)cn2ccnc12 [Compound I-1, 8-(2-fluorobenzyl)-6-(3-(trifluoromethyl)-1H-1,2,4-triazol-5-yl)imidazo[1,2-a]pyrazine] was tested, and the “potentiation of the evoked-response amplitudes, stabilized level” value (“potentiation” for short) ([1]; 7 nM) was “around 25%”, the “rescue of LTP impairment” value ([1]; 7 nM) was “failed to significantly rescue” and the “fEPSP increase at endpoint after HFS (LTP)” value (“fEPSP increase at endpoint” for short) ([1]; 7 nM (R6/2 control 16±3%, WT 46±5%)) was 26±6%. The “effect on short-term plasticity properties (paired pulses, 25 ms to 300 ms ISI)” value ([1]; 7 nM, 46 nM or 308 nM, exception 308 nM at 50 ms ISI) was “None of the evaluated Compound I-1 concentrations (7 nM, 46 nM or 308 nM) displayed a significant effect”, the “effect on overall I/O characteristics” value ([1]; 7 nM, 46 nM, 308 nM) was “none of the 3 concentrations displayed a significant effect” and the “potentiation” value ([1]; 46 nM) was “around 45%”. For the same molecule, the “fEPSP increase at endpoint” value ([1]; 46 nM (R6/2 control 16±3%, WT 46±5%)) was 44±12%, the “rescue of LTP impairment” value ([1]; 46 nM and 308 nM) was “completely restored the LTP deficit” and the “potentiation” value ([1]; 308 nM) was “around 35%”. The “fEPSP increase at endpoint” value ([1]; 308 nM (R6/2 control 16±3%, WT 46±5%)) was 37±9%, the “CEREBELLUM nM cGMP/μg protein” value (cGMP in mouse brain; 0.3 MPK PO) was 0.3199 nM cGMP/μg protein and the “CORTEX nM cGMP/μg protein” value (cGMP in mouse brain; 0.3 MPK PO) was 0.07761 nM cGMP/μg protein. For the same molecule, the “Hippocampus nM cGMP/μg protein” value (cGMP in mouse brain; 0.3 MPK PO) was 0.04255 nM cGMP/μg protein, the “STRIATUM nM cGMP/μg protein” value (cGMP in mouse brain; 0.3 MPK PO) was 0.02261 nM cGMP/μg protein and the “CEREBELLUM nM cGMP/μg protein” value (cGMP in mouse brain; 1 MPK PO) was 0.4577 nM cGMP/μg protein. The “CORTEX nM cGMP/μg protein” value (cGMP in mouse brain; 1 MPK PO) was 0.08064 nM cGMP/μg protein, the “Hippocampus nM cGMP/μg protein” value (cGMP in mouse brain; 1 MPK PO) was 0.04302 nM cGMP/μg protein and the “STRIATUM nM cGMP/μg protein” value (cGMP in mouse brain; 1 MPK PO) was 0.03124 nM cGMP/μg protein. For the same molecule, the “CEREBELLUM nM cGMP/μg protein” value (cGMP in mouse brain; 3 MPK PO) was 0.7524 nM cGMP/μg protein, the “CORTEX nM cGMP/μg protein” value (cGMP in mouse brain; 3 MPK PO) was 0.1081 nM cGMP/μg protein and the “Hippocampus nM cGMP/μg protein” value (cGMP in mouse brain; 3 MPK PO) was 0.0519 nM cGMP/μg protein. The “STRIATUM nM cGMP/μg protein” value (cGMP in mouse brain; 3 MPK PO) was 0.03719 nM cGMP/μg protein, the “CEREBELLUM nM cGMP/μg protein” value (cGMP in mouse brain; 10 MPK PO) was 1.796**** nM cGMP/μg protein and the “CORTEX nM cGMP/μg protein” value (cGMP in mouse brain; 10 MPK PO) was 0.1734* nM cGMP/μg protein. The “Hippocampus nM cGMP/μg protein” value (cGMP in mouse brain; 10 MPK PO) was 0.1171** nM cGMP/μg protein and the “STRIATUM nM cGMP/μg protein” value (cGMP in mouse brain; 10 MPK PO) was 0.04612* nM cGMP/μg protein.

Reference: patent publication US11731977B2, “SGC stimulators” (Cyclerion Therapeutics, Inc., priority 2016, dated 2023)
